Consider 1 compound from paper doi:10.1101/2021.11.15.468710v2 (biorxiv, 2021).

This experiment deals with intact V-ATPase (purified yeast V-ATPase) (Saccharomyces cerevisiae, UniProt P23968+P25515+P32563+P32842). As to the kind of experiment: enzyme-coupled ATPase assay. Format: biochemical.

Consider `CO/C1=C\C(C)=C\[C@@H](C)[C@@H](O)[C@@H](C)C/C(C)=C/C=C/[C@H](OC)[C@@H]([C@@H](C)[C@@H](O)[C@H](C)[C@@]2(O)C[C@@H](O)[C@H](C)[C@@H](C(C)C)O2)OC1=O` [bafilomycin A1], for which the IC50 was less than 1.11 nM.
